From patent US10392368B2, “Pyrazolo and triazolo bicyclic compounds as JAK kinase inhibitors” (THERAVANCE BIOPHARMA R&D IP, LLC, priority 2017, dated 2019) come the findings set out here.

The target in one data set is T1, JAK1 (Homo sapiens, UniProt P23458).
T1 construct: GST; purchased Life Technologies
As to the kind of experiment: Biochemical JAK1 kinase assay (LanthaScreen). Particulars: read-out: JAK 1 (pKi) (converted). In a few lines: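 TR-FRET read-out: terbium anti-pSTAT1 (pTyr701) antibody, 2 nM, with 10 mM EDTA quench, emission ratio 520/495 nm. GST-JAK phosphorylates GFP-STAT1 peptide for 1 h at ambient temperature after 1 h compound pre-incubation. pIC50 from dose-response converted to pKi by Cheng-Prusoff.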
In general terms: TR-FRET usually uses a lanthanide donor and a delayed reading to cut background.

For data set [1], the system named is IL-2 stimulated pSTAT5 in Tall-1 T cells. As to the kind of experiment: Cellular JAK3 potency assay: inhibition of IL-2 stimulated pSTAT5 in Tall-1 T cells. Particulars: Homo sapiens, TALL-1, IL-2 stimulated pSTAT5 in Tall-1 T cells; read-out: Tall-1 (pIC50) (converted). It is filed as cell-based, human. In a few lines:
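In human Tall-1 T cells, IL-2 (300 ng/ml final, 30 min) drives STAT5 phosphorylation after a 1 h compound pretreatment. Lysates are assayed for pSTAT5 by AlphaLisa, and IC50 derived from signal versus concentration is expressed as pIC50.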

A short description of data set [2]: Colon and plasma mouse pharmacokinetics. Format: in vivo. Conditions: mouse, colon tissue / plasma; male Balb/c mice, 10 mg/kg PO; 0.5, 2 and 6 hours; read-out: colon to plasma ratio (colon AUC to plasma AUC). The protocol: 6 male Balb/c mice were administered 10 mg/kg of compound in 1% HPMC+0.1% Tween-80 by PO administration. At 0.5, 2 and 6 hours after dose administration, animals were anesthetized, and terminal blood samples were collected by cardiac puncture, followed by collection of colon contents and colon tissue.
Blood samples were collected into K2EDTA and stored on wet ice until processed to plasma by centrifugation (12000 rpm at 4° C.). Plasma samples were transferred to cluster tubes and placed on dry ice prior to freezer storage. The colon contents from each animal were collected at each terminal blood collection time point. The colon tissues were flushed with saline and patted dry. The colon and colon content tissues were homogenized using sterile water containing 0.1% formic acid 9:1 (water:tissue, v/w). The homogenized tissues and colon contents were transferred to cluster tubes and placed on dry ice prior to freezer storage. All samples were analyzed using LC/MS/MS against analytical standards.
The composite pharmacokinetic parameters of the compounds were determined by non-compartmental analysis using Phoenix WinNonlin Version 6 (Certara, St. Louis, Mo.) and using mean values from 2 animals/time point. For plasma concentrations below the quantification limit (BQL), the lowest concentration measurable or the BLOQ (below limit of quantification) was used.
A colon to plasma ratio was determined as the ratio of the colon AUC to the plasma AUC.

T1 sequence (P23458 whole entry): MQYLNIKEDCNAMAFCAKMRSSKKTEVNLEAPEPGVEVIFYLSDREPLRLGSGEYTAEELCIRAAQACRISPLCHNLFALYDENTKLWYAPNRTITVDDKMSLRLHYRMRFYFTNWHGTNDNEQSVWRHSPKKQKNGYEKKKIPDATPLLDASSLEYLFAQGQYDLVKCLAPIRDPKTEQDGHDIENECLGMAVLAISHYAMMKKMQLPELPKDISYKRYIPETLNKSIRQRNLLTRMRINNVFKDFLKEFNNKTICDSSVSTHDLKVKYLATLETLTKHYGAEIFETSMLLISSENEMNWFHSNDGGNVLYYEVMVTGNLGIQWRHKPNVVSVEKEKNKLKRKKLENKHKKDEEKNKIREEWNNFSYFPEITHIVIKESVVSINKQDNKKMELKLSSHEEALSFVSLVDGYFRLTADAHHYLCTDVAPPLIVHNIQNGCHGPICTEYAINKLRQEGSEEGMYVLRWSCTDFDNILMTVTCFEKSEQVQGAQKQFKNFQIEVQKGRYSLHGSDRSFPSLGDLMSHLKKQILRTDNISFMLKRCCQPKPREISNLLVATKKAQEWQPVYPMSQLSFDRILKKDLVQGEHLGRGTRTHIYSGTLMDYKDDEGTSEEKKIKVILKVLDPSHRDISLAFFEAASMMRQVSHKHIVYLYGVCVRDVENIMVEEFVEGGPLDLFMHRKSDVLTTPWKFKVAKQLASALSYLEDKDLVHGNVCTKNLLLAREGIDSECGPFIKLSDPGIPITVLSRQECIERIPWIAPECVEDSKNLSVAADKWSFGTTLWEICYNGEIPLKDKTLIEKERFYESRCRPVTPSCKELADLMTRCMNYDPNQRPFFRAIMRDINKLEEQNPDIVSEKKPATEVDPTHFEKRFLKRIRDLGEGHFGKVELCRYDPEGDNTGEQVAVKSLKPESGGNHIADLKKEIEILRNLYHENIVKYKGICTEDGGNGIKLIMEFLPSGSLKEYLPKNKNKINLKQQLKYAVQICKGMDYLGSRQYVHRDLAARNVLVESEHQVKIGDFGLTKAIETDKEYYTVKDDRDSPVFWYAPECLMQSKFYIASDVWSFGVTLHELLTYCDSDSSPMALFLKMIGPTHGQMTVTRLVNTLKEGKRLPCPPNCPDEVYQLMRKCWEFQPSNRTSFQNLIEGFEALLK

As to `C=CC(=O)N1CC[C@H](Oc2cc(-c3ccc(O)c(Cl)c3)cc3[nH]ncc23)C1` [Compound 2, (S)-1-(3-((6-(3-chloro-4-hydroxyphenyl)-1H-indazol-4-yl)oxy)pyrrolidin-1-yl)prop-2-en-1-one], the Ki at JAK1 is over 100 nM. Moreover, the IC50 in data set [1] was under 31.6 nM. Also, in data set [2], the Kp is over 1250.

As to `C=CC(=O)N1CC(C(C)(C)Oc2cc(-c3ccc(O)cc3)nc3[nH]ncc23)C1` [Compound 20, 1-(3-(2-((6-(4-hydroxyphenyl)-1H-pyrazolo[3,4-b]pyridin-4-yl)oxy)propan-2-yl)azetidin-1-yl)prop-2-en-1-one], on JAK1, the Ki is over 100 nM. The IC50 in data set [1] was under 31.6 nM. Moreover, the Kp in data set [2] was over 200.

For `CN(C)C/C=C/C(=O)N1CC(COc2cc(-c3ccc(O)c(F)c3)cc3[nH]ncc23)C1` [Compound 5, (E)-4-(dimethylamino)-1-(3-(((6-(3-fluoro-4-hydroxyphenyl)-1H-indazol-4-yl)oxy)methyl)azetidin-1-yl)but-2-en-1-one], the Ki on JAK1 was over 100 nM. The IC50 in data set [1] was 31.6 to 200 nM. Also, the Kp in data set [2] was over 200.

In the case of `C=CC(=O)N1CC(C)(COc2nc(-c3ccc(O)c(F)c3)nc3[nH]ncc23)C1` [Compound 21, 1-(3-(((6-(3-fluoro-4-hydroxyphenyl)-1H-pyrazolo[3,4-d]pyrimidin-4-yl)oxy)methyl)-3-methylazetidin-1-yl)prop-2-en-1-one], on JAK1, the Ki was over 100 nM. In data set [1], the IC50 was 31.6 to 200 nM. The Kp in data set [2] was over 1250.

As to `C=CC(=O)N1CC(COc2nc(-c3ccc(O)cc3)nc3[nH]ncc23)C1` [Compound 4, 1-(3-(((6-(4-hydroxyphenyl)-1H-pyrazolo[3,4-d]pyrimidin-4-yl)oxy)methyl)azetidin-1-yl)prop-2-en-1-one], the Ki at JAK1 is over 100 nM. For the same compound, in data set [1], the IC50 is 31.6 to 200 nM. In addition, in data set [2], the Kp was over 1250.

Turning to `CN(C)C/C=C/C(=O)N1CCC(C)(Oc2cc(-c3ccc(O)cc3)cc3[nH]ncc23)CC1` [Compound 9, (E)-4-(dimethylamino)-1-(4-((6-(4-hydroxyphenyl)-1H-indazol-4-yl)oxy)-4-methylpiperidin-1-yl)but-2-en-1-one], the Ki on JAK1 was over 100 nM. Moreover, the IC50 in data set [1] is 31.6 to 200 nM. Besides, in data set [2], the Kp was over 200.

With `C=CC(=O)N1CCO[C@@H](C(=O)Nc2cc(-c3ccc(O)cc3)cc3[nH]ncc23)C1` [Compound 6, (R)-4-acryloyl-N-(6-(4-hydroxyphenyl)-1H-indazol-4-yl)morpholine-2-carboxamide], the Ki on JAK1 is over 100 nM. The IC50 in data set [1] is under 31.6 nM. Further, the Kp in data set [2] is over 1250.

Take `C=CC(=O)N1CC(CC)(COc2cc(-c3ccc(O)cc3)nc3[nH]ncc23)C1` [Compound 22, 1-(3-ethyl-3-(((6-(4-hydroxyphenyl)-1H-pyrazolo[3,4-b]pyridin-4-yl)oxy)methyl)azetidin-1-yl)prop-2-en-1-one]: the Ki at JAK1 is over 100 nM. For the same compound, the IC50 in data set [1] was 31.6 to 200 nM. Besides, the Kp in data set [2] was over 1250.

Consider `CN(C)C/C=C/C(=O)N1CC(C#N)(COc2cc(-c3ccc(O)c(F)c3)cc3[nH]ncc23)C1` [Compound 8, (E)-1-(4-(dimethylamino)but-2-enoyl)-3-(((6-(3-fluoro-4-hydroxyphenyl)-1Hindazol-4-yl)oxy)methyl)azetidine-3-carbonitrile], for which the Ki on JAK1 is over 100 nM. The IC50 in data set [1] is under 31.6 nM. For the same compound, in data set [2], the Kp is over 1250.

With `C=CC(=O)N1CC[C@H](COc2cc(-c3ccc(O)cc3)cc3[nH]ncc23)C1` [Compound 7, (S)-1-(3-(((6-(4-hydroxyphenyl)-1H-indazol-4-yl)oxy)methyl)pyrrolidin-1-yl)prop-2-en-1-one], the Ki on JAK1 is over 100 nM. Moreover, the IC50 in data set [1] was 31.6 to 200 nM. In data set [2], the Kp was over 1250.

Take `CN(C)C/C=C/C(=O)N1CC(COc2cc(-c3ccc(O)cc3)cc3[nH]ncc23)C1` [Compound 1, (E)-4-(dimethylamino)-1-(3-(((6-(4-hydroxyphenyl)-1H-indazol-4-yl)oxy)methyl)azetidin-1-yl)but-2-en-1-one]: the Ki at JAK1 is over 100 nM. Moreover, the IC50 in data set [1] was 31.6 to 200 nM. For the same compound, in data set [2], the Kp was over 1250.

As for `CN(C)C/C=C/C(=O)N1CC(C(C)(C)Oc2cc(-c3ccc(O)c(Cl)c3)cc3[nH]ncc23)C1` [Compound 3, (E)-1-(3-(2-((6-(3-chloro-4-hydroxyphenyl)-1H-indazol-4-yl)oxy)propan-2-yl)azetidin-1-yl)-4-(dimethylamino)but-2-en-1-one], the Ki on JAK1 was over 100 nM. Besides, the IC50 in data set [1] was 31.6 to 200 nM. Moreover, the Kp in data set [2] was over 1250.
